Source: US20260207659A1, “COMPOSITIONS FOR USE IN THE PROPHYLACTIC TREATMENT OF HYPOCALCEMIA IN A RUMINANT ANIMAL” (VILOFOSS A/S, priority 2022, published 2026)
Values joined by “and” are separate entries in the source; they are usually repeats but may differ in a detail not shown here. Identical values can stand only once. Like-named read-outs stand apart in the source and are kept apart here.

Assay: In vitro phosphorus binding efficacy in rumen fluid, three phases mimicking the digestive tract of a ruminant (Thilsing et al.)
Parameters: species or system ruminant animal; Phosphate binding in comparison to control, % / P binding in comparison to control, %: concentration or dose not given beside the values
[1] = Table 1, from free phosphate, relative to Zeolite 4A
[2] = Table 1, from free phosphate, relative to untreated control
[3] = Table 2, phase 3 binding capacity, relative to Zeolite 4A
[4] = Table 2, phase 3 binding capacity, relative to control
[5] = phase 3 (after HCl and HCO3-, mimicking small intestine)
[6] = statement in words on Tables 1 and 2
[7] = supernatant of rumen fluid after addition of HCl and HCO3-, 0.06 g compound/8 ml rumen fluid

Compound	Phosphate binding in comparison to 4A, % [1] [%]	Phosphate binding in comparison to control, % [2] [%]	Phosphate binding in comparison to 4A, % [3] [%]	P binding in comparison to control, % [4] [%]	Phosphate Binding Capacity [5]	Phosphorus binding compared to other compounds, including Zeolite 4A alone [6]	Free Phosphate [7] [mmol]	Free Phosphate [mmol]	P binding in comparison to control, % [%]	Phosphate Binding Capacity	Phosphate binding in comparison to 4A, %	Phosphate binding in comparison to control, % [%]	Phosphorus binding compared to other compounds, including Zeolite 4A alone
[Cl][Al]([Cl])[Cl] [Aluminium chloride]	45.6	64.3	94	96	88.9 mg Phosphate/gram of compound	superior	7.0						
O=S(=O)([O-])[O-].[Fe+2] [Iron (II) sulphate]								8.2	75	69.3 mg Phosphate/gram of compound	36.5% and 56%	58.3	superior
O=C([O-])[O-].O=C([O-])[O-].O=C([O-])[O-].[La+3].[La+3] [Lanthanum carbonate, hydrated, reference compound]	22.6	49.2	72	84	77.7 mg Phosphate/gram of compound	superior	10.0						
[Cl][La]([Cl])[Cl] [Lanthanum chloride]	51.1	67.9	62	79	72.8 mg Phosphate/gram of compound	superior	6.3						
